Laboratory results reported in ChEMBL document CHEMBL1201862, “PubChem BioAssay data set” (2004).
Calls of active or inactive are those of the source.

Legend:
Fatty acid synthase [1] = biological target: T1, Fatty acid synthase (Homo sapiens, UniProt P49327); assay: inhibition of human FAS-TE enzyme activity – biochemical, endpoint fluorescence intensity, uHTS hits, dose response (AID 624327); format: functional;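 also: fluorescence from hydrolysis of an O-methyl fluorescein acyl ester substrate by the enzyme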
Fatty acid synthase [2] = biological target: T1, Fatty acid synthase; assay: inhibition of human FAS-TE enzyme activity – biochemical, kinetic fluorescence intensity, dose response (AID 624326); format: functional;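 also: rate of fluorescence rise from hydrolysis of a fluorogenic O-methyl fluorescein ester substrate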
[3] = blockers of HIV-1 ZM109 envelope-driven cell-cell fusion – HeLa effector, CEM target cells, luciferase, cherry-pick, dose response (AID 652058); format: functional, cell-based;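 also: luciferase signal from HIV-1 Env mediated cell-cell fusion of effector and target cells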
[4] = HIV-1 AD8 envelope cell-cell fusion blockers – cherry-pick, dose response (AID 652062); format: functional, cell-based;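 also: luciferase signal from cell-cell fusion driven by HIV-1 clade B AD8 Env; potency is for inhibitors of fusion seen as a drop in luminescence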
[5] = off-target signal loss in HeLa-CEM21 co-culture – HeLa F-luc CTL cells, cherry-picked, counter-screen for HIV-1 Env fusion inhibitor project, dose response (AID 652040); format: functional, cell-based;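 also: potency for signal decrease marking cytotoxic or nonspecific inhibition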
[6] = blockers of HIV-1 envelope-mediated cell-cell fusion – cherry-pick, dose response (AID 652057); format: functional, cell-based
[7] = biological target: T2, RNA-binding protein pos-1 (Caenorhabditis elegans, UniProt G5EF15); assay: disruptors of C. elegans POS-1 RNA interaction – biochemical, fluorescence polarization, dose response (AID 1964);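 also: purified POS-1 fused to maltose binding protein made in E. coli; potency of compounds blocking POS-1 binding to fluorescent RNA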
T2 sequence (G5EF15 whole entry): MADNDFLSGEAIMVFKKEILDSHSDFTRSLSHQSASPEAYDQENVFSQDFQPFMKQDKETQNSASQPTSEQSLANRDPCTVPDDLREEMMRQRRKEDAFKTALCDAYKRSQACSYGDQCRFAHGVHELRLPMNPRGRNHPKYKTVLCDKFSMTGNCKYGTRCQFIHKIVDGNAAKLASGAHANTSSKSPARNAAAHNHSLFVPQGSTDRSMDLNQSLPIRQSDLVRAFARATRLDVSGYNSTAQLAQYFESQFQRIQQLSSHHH

[8] = biological target: T3, Ubiquitin-conjugating enzyme E2 N (Homo sapiens, UniProt P61088); format: functional
T3 sequence (P61088 whole entry): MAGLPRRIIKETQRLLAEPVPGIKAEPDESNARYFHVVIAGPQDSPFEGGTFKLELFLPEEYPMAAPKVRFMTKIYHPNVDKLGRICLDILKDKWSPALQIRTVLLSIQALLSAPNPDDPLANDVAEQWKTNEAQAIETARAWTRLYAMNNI

[9] = biological target: T3, Ubiquitin-conjugating enzyme E2 N; format: functional; remark: listed apart in the source
Bcl-2-related protein A1 = biological target: T4, Bcl-2-related protein A1 (Mus musculus, UniProt Q07440); format: functional;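 also: confirmatory dose–response counterscreen on Bfl-1, used to check hits from a UBC13 polyubiquitin inhibitor campaign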
T4 sequence (Q07440 whole entry): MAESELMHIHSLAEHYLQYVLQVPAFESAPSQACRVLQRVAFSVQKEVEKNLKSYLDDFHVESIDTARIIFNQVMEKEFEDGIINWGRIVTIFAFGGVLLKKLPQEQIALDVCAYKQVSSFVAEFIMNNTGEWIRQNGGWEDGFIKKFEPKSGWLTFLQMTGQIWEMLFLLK

[10] = biological target: T5, Zinc finger protein mex-5 (Caenorhabditis elegans, UniProt Q9XUB2); assay: potency of MEX-5 RNA-binding blockers – biochemical, C. elegans, fluorescence polarization, dose response (AID 1960)
T5 sequence (Q9XUB2 whole entry): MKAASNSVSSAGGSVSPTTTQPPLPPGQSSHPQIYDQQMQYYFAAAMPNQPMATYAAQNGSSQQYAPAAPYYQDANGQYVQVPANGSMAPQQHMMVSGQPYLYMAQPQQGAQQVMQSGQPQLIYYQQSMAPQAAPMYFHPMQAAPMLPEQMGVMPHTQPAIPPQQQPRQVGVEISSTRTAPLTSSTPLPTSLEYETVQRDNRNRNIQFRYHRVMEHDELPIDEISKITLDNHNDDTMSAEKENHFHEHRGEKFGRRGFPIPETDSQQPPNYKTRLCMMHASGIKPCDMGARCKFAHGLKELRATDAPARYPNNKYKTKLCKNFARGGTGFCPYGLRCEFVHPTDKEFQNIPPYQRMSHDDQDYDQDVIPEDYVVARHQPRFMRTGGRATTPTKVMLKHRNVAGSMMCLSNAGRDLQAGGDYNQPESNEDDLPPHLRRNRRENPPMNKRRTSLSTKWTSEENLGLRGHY

[11] = OVCAR8 cell viability loss – plate reader, dry powder samples, PAX8 project, dose response (AID 743197); format: functional, cell-based; settings: OVCAR-8
Paired box protein Pax-8 = Paired box protein Pax-8 (Homo sapiens, UniProt Q06710); assay: PAX8 transcriptional activity inhibition in RMG-I – RMG-I cells, luciferase, cherry-pick, dose response (AID 687027); format: functional, cell-based;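 also: luciferase reporter driven by Pax8 target thyroperoxidase promoter measured by SteadyGlo luminescence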
Cytochrome P450 2C9 = Cytochrome P450 2C9 (Homo sapiens, UniProt P11712)
Cytochrome P450 1A2 = biological target: T6, Cytochrome P450 1A2 (Homo sapiens, UniProt P05177);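 also: PubChem cytochrome P450 panel assay, CYP1A2 panel member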
T6 sequence (P05177 whole entry): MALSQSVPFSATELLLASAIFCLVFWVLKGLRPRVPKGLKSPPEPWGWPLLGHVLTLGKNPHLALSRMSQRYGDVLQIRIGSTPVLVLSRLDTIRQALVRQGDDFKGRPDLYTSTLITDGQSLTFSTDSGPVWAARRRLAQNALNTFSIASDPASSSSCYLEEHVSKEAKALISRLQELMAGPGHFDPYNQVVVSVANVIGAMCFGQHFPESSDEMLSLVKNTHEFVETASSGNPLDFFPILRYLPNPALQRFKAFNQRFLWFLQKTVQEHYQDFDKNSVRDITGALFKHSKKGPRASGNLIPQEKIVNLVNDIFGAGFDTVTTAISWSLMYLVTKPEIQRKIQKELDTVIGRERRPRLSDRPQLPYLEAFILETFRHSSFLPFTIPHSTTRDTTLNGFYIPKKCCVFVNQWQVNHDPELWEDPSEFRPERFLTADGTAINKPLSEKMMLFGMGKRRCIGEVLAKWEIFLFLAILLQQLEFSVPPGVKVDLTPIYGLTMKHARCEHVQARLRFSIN

[12] = viability loss in THP-1 monocytes – THP-1 cells, cytotoxicity control for Vif-APOBEC3G degradation inhibitor project, dose response (AID 1117359); format: functional; settings: THP-1
Cytochrome P450 2D6 = Cytochrome P450 2D6 (Homo sapiens, UniProt P10635);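 also: CYP2D6 member of a cytochrome P450 panel assay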
[13] = Dd2 malaria parasite growth inhibition potency – SYBR Green, dry powder samples, dose response (AID 1159566); format: functional, cell-based;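 also: potency for growth inhibition with lower SYBR green DNA signal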
[14] = growth inhibition of yeast DHODH-expressing 3D7 parasites – SYBR Green, dry powder samples, dose response (AID 1159570); format: functional, cell-based;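 also: parasite growth measured after 72 hours of compound exposure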
[15] = P. falciparum Dd2 growth inhibitors, dose response, SYBR Green, cherry-picked samples (AID 1159567); format: functional, cell-based
[16] = toxicity to human HepG2 hepatoma cells – cell-based, plate reader, dry powder samples, cytotoxicity control, dose response (AID 1159569); format: functional;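 also: inhibitor potency with signal falling toward the positive control level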
[17] = growth inhibition of PfATP4-mutant resistant parasites – NITD609-resistant line, SYBR Green, dry powder, dose response (AID 1159571); format: functional, cell-based;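 also: parasites synchronized at ring stage by sorbitol before testing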
Nonstructural protein 1 = Nonstructural protein 1 (Influenza A virus, UniProt Q194T2); format: functional, Influenza A virus (A/California/07/2009(H1N1))
[18] = biological target: Induced myeloid leukemia cell differentiation protein Mcl-1 (Homo sapiens, UniProt Q07820); format: functional
[19] = viability of HCT116 lacking mutant beta-catenin – cell-based, human colon tumor, dose response (AID 1045); format: functional;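 also: HCT116 colon tumor cells with beta catenin knocked out; cells exposed to compound for 60 hours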
[20] = biological target: T7, Carboxy-terminal domain RNA polymerase II polypeptide A small phosphatase 1 (Homo sapiens, UniProt Q9GZU7); assay: CTDSP1 inhibitors, concentration-response, biochemical, absorbance readout, ultra-high-throughput screen actives (AID 540297); format: functional
T7 sequence (Q9GZU7 whole entry): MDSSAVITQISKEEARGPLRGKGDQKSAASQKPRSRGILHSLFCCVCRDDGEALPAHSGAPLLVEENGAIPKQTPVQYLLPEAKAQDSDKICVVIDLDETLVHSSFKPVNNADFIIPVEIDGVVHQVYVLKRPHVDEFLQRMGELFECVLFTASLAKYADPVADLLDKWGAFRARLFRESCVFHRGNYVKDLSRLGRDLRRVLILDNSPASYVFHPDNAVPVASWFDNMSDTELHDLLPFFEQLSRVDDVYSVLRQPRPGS

Cytochrome P450 3A4 = Cytochrome P450 3A4 (Homo sapiens, UniProt P08684);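 also: CYP3A4 tested as one member of a cytochrome P450 panel screen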
[21] = blockade of melanocortin 4 receptor signaling – cell-based, plate reader, cherry pick, counter-screen for LGR2 antagonist project, dose response (AID 743444); format: functional;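 also: transfected HEK 293 cells stimulated with alpha-MSH peptide; potency of inhibitors of the alpha-MSH evoked signal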
[22] = blockers of bursicon-stimulated LGR2 cAMP reporter – cell-based, HEK293, CRE-luciferase reporter, cherry pick, set 2, dose response (AID 743343); format: functional;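 also: transfected cells were stimulated with diluted bursicon conditioned medium after compound addition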
Cytochrome P450 2C19 = Cytochrome P450 2C19 (Homo sapiens, UniProt P33261); assay: Cytochrome panel assay with activity outcomes. Panel member name: p450-cyp2c19 Compounds with AC50 equal or less than 10 uM are considered active; format: functional; settings: read-out: AC50
Sequence of Cytochrome P450 2C19 (P33261 whole entry): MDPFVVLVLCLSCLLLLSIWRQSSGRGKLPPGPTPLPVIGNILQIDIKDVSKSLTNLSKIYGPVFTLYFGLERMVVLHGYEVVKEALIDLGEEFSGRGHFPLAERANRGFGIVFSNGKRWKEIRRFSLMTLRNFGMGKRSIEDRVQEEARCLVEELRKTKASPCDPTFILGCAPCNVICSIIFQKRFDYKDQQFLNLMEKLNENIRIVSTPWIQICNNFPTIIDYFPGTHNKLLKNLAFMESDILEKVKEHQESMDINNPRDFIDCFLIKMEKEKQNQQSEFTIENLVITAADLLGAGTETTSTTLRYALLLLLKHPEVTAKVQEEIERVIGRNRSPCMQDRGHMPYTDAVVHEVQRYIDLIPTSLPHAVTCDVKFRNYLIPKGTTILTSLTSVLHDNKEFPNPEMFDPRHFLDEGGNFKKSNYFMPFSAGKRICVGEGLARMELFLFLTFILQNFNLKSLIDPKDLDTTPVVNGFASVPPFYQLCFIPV

Sequence of Cytochrome P450 2C9 (P11712 whole entry): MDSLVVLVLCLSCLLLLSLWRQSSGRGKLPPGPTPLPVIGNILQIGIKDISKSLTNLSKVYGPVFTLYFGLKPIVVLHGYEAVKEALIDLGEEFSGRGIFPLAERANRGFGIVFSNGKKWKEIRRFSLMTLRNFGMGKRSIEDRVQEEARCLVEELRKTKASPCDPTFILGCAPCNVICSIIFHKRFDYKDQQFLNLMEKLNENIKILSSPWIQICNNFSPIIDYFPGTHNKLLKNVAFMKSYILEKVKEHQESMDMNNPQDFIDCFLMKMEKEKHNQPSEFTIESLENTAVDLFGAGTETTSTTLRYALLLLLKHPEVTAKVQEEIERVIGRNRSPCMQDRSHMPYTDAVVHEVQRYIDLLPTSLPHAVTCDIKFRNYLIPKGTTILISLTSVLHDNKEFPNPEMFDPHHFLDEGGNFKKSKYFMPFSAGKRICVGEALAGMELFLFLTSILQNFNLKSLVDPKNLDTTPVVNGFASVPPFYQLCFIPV
T1 sequence (P49327 whole entry): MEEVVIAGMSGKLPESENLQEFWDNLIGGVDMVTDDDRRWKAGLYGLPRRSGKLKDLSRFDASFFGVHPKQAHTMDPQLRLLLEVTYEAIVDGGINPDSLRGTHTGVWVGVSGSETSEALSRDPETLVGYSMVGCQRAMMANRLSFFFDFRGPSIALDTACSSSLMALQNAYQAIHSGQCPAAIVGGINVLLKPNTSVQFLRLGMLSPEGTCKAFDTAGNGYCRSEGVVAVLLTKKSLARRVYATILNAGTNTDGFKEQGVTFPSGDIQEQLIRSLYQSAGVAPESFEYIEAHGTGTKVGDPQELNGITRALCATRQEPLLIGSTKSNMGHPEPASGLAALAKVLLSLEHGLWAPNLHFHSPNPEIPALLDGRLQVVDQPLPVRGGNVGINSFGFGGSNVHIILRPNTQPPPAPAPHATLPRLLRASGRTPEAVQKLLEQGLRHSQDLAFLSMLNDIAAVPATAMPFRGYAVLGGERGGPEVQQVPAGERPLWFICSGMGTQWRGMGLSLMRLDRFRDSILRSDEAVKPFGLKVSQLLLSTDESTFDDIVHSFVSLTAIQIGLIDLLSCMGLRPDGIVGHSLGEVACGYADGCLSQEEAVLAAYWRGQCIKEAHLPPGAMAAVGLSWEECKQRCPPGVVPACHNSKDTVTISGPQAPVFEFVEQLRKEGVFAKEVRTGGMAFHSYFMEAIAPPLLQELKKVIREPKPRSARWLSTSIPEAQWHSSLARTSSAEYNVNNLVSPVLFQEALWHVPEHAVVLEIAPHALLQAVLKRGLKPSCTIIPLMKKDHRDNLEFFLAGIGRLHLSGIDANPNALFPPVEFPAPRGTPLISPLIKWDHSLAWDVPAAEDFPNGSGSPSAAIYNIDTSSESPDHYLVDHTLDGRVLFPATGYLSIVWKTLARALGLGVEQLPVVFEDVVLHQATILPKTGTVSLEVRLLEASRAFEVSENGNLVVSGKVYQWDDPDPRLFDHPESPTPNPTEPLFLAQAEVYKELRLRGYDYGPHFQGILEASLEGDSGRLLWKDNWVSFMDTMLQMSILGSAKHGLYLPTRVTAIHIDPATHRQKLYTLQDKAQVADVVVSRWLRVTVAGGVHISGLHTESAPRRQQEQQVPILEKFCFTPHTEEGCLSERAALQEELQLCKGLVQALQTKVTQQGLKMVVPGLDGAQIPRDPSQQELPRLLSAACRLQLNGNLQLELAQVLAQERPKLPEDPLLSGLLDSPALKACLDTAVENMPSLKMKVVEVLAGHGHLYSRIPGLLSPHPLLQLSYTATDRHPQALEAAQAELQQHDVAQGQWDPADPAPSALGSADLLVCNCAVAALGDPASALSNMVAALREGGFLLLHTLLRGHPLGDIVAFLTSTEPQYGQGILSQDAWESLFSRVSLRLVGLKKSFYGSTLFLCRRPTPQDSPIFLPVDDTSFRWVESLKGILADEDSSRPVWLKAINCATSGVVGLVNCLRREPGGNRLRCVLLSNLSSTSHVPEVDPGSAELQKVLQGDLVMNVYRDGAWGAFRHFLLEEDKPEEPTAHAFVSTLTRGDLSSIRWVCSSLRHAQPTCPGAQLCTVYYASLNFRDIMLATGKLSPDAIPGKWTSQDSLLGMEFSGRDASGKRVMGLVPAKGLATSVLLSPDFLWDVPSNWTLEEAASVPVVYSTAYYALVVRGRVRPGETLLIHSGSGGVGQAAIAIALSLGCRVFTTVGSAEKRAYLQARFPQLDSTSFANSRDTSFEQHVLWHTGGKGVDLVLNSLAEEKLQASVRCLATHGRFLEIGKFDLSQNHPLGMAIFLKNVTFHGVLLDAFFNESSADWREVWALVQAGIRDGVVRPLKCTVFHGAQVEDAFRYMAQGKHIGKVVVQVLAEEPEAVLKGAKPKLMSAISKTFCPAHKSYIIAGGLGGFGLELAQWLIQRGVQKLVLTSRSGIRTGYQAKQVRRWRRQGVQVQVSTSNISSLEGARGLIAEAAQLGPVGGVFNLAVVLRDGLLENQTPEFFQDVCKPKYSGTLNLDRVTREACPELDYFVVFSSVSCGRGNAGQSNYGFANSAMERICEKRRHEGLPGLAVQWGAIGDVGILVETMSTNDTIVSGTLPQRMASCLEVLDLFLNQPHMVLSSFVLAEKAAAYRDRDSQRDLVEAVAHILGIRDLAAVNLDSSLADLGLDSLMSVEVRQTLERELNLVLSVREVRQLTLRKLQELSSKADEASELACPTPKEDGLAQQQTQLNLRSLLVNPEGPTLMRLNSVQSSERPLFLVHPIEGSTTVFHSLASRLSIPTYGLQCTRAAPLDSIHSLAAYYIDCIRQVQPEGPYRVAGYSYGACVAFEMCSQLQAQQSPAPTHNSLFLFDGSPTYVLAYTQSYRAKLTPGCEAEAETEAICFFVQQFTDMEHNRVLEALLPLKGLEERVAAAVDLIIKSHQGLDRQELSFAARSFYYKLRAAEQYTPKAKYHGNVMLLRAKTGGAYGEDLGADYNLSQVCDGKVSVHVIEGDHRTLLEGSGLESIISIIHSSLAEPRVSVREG
Sequence of Paired box protein Pax-8 (Q06710 whole entry): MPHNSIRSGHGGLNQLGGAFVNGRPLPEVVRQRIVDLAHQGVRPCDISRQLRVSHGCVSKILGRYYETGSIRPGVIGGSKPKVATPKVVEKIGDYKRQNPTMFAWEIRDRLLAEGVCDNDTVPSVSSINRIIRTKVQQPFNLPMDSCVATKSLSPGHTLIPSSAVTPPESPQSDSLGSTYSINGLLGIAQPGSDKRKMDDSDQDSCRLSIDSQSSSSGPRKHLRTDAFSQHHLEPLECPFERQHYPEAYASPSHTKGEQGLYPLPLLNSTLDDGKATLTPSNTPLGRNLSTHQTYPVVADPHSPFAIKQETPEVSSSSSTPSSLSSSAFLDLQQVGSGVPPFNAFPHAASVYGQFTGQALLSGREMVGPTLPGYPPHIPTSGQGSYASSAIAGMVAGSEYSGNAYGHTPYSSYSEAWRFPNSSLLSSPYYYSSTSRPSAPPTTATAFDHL
Sequence of Cytochrome P450 3A4 (P08684 whole entry): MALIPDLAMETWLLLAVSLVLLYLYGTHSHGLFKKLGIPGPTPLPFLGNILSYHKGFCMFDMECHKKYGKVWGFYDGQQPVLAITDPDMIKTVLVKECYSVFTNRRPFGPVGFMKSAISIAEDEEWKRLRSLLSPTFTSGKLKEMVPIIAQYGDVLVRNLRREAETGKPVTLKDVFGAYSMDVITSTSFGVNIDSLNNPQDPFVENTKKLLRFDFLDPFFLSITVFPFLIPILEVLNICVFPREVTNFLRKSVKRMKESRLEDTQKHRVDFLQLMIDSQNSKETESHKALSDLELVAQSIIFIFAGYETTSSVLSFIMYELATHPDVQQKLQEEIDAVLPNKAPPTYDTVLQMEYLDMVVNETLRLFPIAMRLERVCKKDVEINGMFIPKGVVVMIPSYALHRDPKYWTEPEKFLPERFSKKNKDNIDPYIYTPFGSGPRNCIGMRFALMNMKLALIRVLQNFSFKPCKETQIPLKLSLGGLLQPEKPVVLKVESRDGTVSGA
Sequence of Nonstructural protein 1 (Q194T2 whole entry): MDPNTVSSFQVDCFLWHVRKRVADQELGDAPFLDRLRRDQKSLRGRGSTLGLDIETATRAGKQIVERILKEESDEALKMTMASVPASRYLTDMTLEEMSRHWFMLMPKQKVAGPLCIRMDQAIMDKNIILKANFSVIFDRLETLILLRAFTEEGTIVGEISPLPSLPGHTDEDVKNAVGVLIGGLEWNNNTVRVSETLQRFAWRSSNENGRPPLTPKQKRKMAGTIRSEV
Sequence of Induced myeloid leukemia cell differentiation protein Mcl-1 (Q07820 whole entry): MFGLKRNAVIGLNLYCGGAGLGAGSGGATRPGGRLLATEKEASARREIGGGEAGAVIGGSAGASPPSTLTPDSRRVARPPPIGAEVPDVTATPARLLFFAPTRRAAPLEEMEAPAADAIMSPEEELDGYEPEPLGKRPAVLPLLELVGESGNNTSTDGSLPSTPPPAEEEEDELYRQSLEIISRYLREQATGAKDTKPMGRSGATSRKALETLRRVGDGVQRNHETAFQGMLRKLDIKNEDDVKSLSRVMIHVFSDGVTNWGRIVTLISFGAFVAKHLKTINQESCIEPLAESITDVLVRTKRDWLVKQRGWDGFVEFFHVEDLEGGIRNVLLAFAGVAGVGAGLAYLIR

SMILES: Cn1c(=O)c2nc(COc3ccc(C(C)(C)C)cc3)[nH]c2n(C)c1=O
- IC50 (Fatty acid synthase [1]): 4.28 µM (active)
- IC50 (Fatty acid synthase [2]): 6.26 µM (active)

SMILES: CCCCN1CC(=O)N2[C@H]3c4ccccc4OC[C@@H]3[C@H](c3ccccc3)[C@]2(C)C1=O
- AC50 [3]: 0.448 µM (active)
- AC50 [4]: 29.7 µM (active)
- AC50 [5]: 4.48 µM (active)
- AC50 [6]: 3.64 µM (active)

SMILES: Nc1ccc2[nH]c(-c3cccc(-c4nc5cc(N)ccc5[nH]4)n3)nc2c1
- EC50 [7]: > 300 µM (not active)
- IC50 [8]: 9 µM (active)
- IC50 [9]: 8.28 µM (active)
- IC50 (Bcl-2-related protein A1): 5.82 µM (active)
- EC50 [10]: > 300 µM (not active)

SMILES: C[C@H]1CCCCO[C@H](CN(C)C(=O)Nc2ccc(F)cc2)[C@@H](C)CN([C@@H](C)CO)C(=O)c2cc(NC(=O)Nc3ccc(C(F)(F)F)cc3)ccc2O1
- AC50 [11]: 58.3 µM (active)
- AC50 (Paired box protein Pax-8): 8.09 µM (active)

SMILES: CNC(=O)/C(=C\C=C\c1ccccc1)NC(=O)c1ccc([N+](=O)[O-])cc1
- IC50 (Fatty acid synthase [1]): 0.786 µM (active)
- IC50 (Fatty acid synthase [2]): 0.809 µM (active)

SMILES: Nc1nnc(CC(=O)N/N=C/c2cccc([N+](=O)[O-])c2)s1
- AC50 (Cytochrome P450 2C9): inconclusive
- AC50 (Cytochrome P450 1A2): 31.6 µM (inconclusive)

SMILES: CCN(CC)S(=O)(=O)c1ccc(/C=C/C(=O)Nc2ccc(N3CCOCC3)cc2)cc1
- CC50 [12]: > 40 µM (active)

SMILES: COc1cccc(C(=O)Nc2cc(C(F)(F)F)ccc2Cl)c1
- AC50 (Cytochrome P450 2D6): 28.2 µM (inconclusive)
- AC50 (Cytochrome P450 2C9): inconclusive

SMILES: CCC(C)NC(=O)CSc1ccc(S(=O)(=O)N2CCN(Cc3ccccc3)CC2)cn1 (stereo not drawn)
- CC50 [12]: > 40 µM (active)

SMILES: C[C@H]1CN([C@@H](C)CO)C(=O)c2c(c3ccccc3n2C)-c2ccccc2CO[C@H]1CN(C)S(=O)(=O)c1ccc(C(F)(F)F)cc1
- AC50 [13]: 0.23 µM (active)
- AC50 [14]: 0.251 µM (active)
- AC50 [11]: 50.8 µM (active)
- AC50 (Paired box protein Pax-8): 3.69 µM (active)
- AC50 [15]: < 0.3 µM (active)
- AC50 [16]: 32.1 µM (active)
- AC50 [17]: 0.216 µM (active)

SMILES: CCO/C(O)=C/c1nc2ccccc2sc1=O
- AC50 [3]: 5.06 µM (active)
- AC50 [4]: 3 µM (active)
- AC50 [5]: 5.57 µM (active)
- AC50 [6]: 5.7 µM (active)

SMILES: CC[C@@]1(C(=O)OC)N[C@H](CN(C)C(=O)Nc2ccc(F)cc2)[C@@H]2C(=O)N(Cc3ccccc3)C(=O)[C@@H]21
- AC50 [3]: 0.378 µM (active)
- AC50 [4]: 0.614 µM (active)
- AC50 [5]: 0.744 µM (active)
- AC50 [6]: 0.401 µM (active)

SMILES: Clc1ccc(CN2CCCN(Cc3ccc(Cl)cc3)C2c2cc3ccccc3c3ccccc23)cc1
- AC50 (Cytochrome P450 2C9): inconclusive

SMILES: Cc1cc(C(=O)N/N=C/c2cc([N+](=O)[O-])ccc2O)c2ccccc2n1
- IC50 (Fatty acid synthase [1]): 3.18 µM (active)
- IC50 (Fatty acid synthase [2]): 2.75 µM (active)
- IC50 (Nonstructural protein 1): 5.29 µM (active)

SMILES: COc1ccc(-c2cc([N+](=O)[O-])ccc2OCC(=O)N(C)CC(=O)Nc2ccc(C)cc2)cc1
- IC50 (Fatty acid synthase [1]): 7.56 µM (active)
- IC50 (Fatty acid synthase [2]): 7.78 µM (active)

SMILES: CC(C)CC#Cc1ccc2c(c1)O[C@H](CN(C)Cc1ccc(F)cc1)[C@H](C)CN([C@H](C)CO)S2(=O)=O
- AC50 [11]: 61.2 µM (active)
- AC50 (Paired box protein Pax-8): 23.1 µM (active)

SMILES: CCN(CC)c1ccc(NC2=C(Cl)C(=O)c3ccccc3C2=O)cc1
- CC50 [12]: 4.24 µM (active)
- IC50 [18]: 1.47 µM (active)
- EC50 [19]: 1 µM (active)

SMILES: CCOC(=O)C1=CC[C@H]2c3c(c4ccccc4n3C)C(=O)C1N2C(=O)OC(C)(C)C
- IC50 (Fatty acid synthase [1]): 10.8 µM (active)
- IC50 (Fatty acid synthase [2]): 11.9 µM (active)

SMILES: COc1ccc2cc(C(=O)Nc3ccc(F)cc3)sc(=O)c2c1OC
- IC50 [20]: 6.77 µM (active)
- AC50 (Cytochrome P450 2C9): inconclusive

SMILES: Oc1ccc(Cn2cc[nH]c2=S)cc1
- AC50 (Cytochrome P450 2C9): inconclusive
- AC50 (Cytochrome P450 1A2): 6.31 µM (inconclusive)
- AC50 (Cytochrome P450 3A4): 15.8 µM (inconclusive)

SMILES: O=C(O)c1ccc(-c2noc(-c3ccccc3Cl)n2)cc1
- AC50 [21]: 32.9 µM (active)
- AC50 [22]: 28.3 µM (active)

SMILES: O=C(Nc1cccn2ncnc12)c1ccc(Cl)cc1Cl
- AC50 (Cytochrome P450 2C19): 11.2 µM (inconclusive)
- AC50 (Cytochrome P450 2C9): inconclusive
